Measurements from article PMC6778934, “^99mTc-Labeled LyP-1 for SPECT Imaging of Triple Negative Breast Cancer” (Contrast Media & Molecular Imaging, 2019).

System: 4T1 cells
Type: cell-based, murine
Procedure: 4T1 murine breast carcinoma cells were purchased from American Type Culture Collection (Manassas, VA, USA) and maintained in RPMI-1640 supplemented with 10% fetal bovine serum (FBS, Gibco, Grand Island, NY, USA). To produce breast cancer models, 4-week-old female BALB/c nude mice were purchased from the Shanghai Laboratory Animal Center at the Chinese Academy of Sciences (Shanghai, China) and subcutaneously injected in the left lateral thigh with 1 × 10^6 tumor cells suspended in 100 μL of PBS. All animal experiments were performed according to protocols established by the Ethics Committee of Shanghai General Hospital. To assess potential cytotoxic effects of LyP-1 or ARAL, cell proliferation assays were conducted with CCK-8 (Dojindo Technologies, Kumamoto, Japan). 4T1 cells (1 × 10^4 per well) were plated on 96-well plates in the RPMI-1640 medium with 10% FBS. After 24 h, the medium was replaced by 100 μL of fresh containing different concentrations of LyP-1 or ARAL (0.1, 1, 5, 10, 20, or 50 μM) for another 24 h. Then, 10 μL CCK-8 was added for 2 h. Absorbance was measured at 450 nm using a Varioskan Flash multimode microplate reader (Thermo Fisher Scientific, Waltham, MA, USA).

C[C@@H](O)[C@@H]1NC(=O)[C@H](CCCNC(=N)N)NC(=O)[C@H](CCCCN)NC(=O)[C@H](CC(N)=O)NC(=O)CNC(=O)[C@@H](N)CSSC[C@@H](C(=O)O)NC(=O)CNC(=O)[C@H](CCCNC(=N)N)NC1=O [LyP-1]
cell viability compared with that for 0.1–10 μM: slightly but not significantly lower
